Results published in US20150216806A1, “LAXATIVE COMPOSITIONS AND METHODS FOR TREATING CONSTIPATION AND RELATED GASTROINTESTINAL DISEASES AND CONDITIONS” (SALIX PHARMACEUTICALS, INC., priority 2012, published 2015).

System: patient with chronic constipation
Test: Example 7: case report, bisoxatin added to colchicine in chronic constipation
Format: in vivo, human
Details: 1 mg in the morning and 1.5 in the evening; still missing a day here and there
Procedure: They were given added bisoxatin of 120 mg twice daily. […] They were going too well however and the bisoxatin had to be cut back 120 mg mane. For a week or so they were able to take the bisoxatin 120 in the morning and every second day 120 at night. They continued with the treatment for 3 or 4 weeks to date.

COc1cc2c(c(OC)c1OC)-c1ccc(OC)c(=O)cc1[C@@H](NC(C)=O)CC2 [colchicine]
response of constipation to colchicine alone: did not respond
